Results taken from patent US20120245357A1, “ALR2 INHIBITORS AND THEIR SYNTHESIS FROM A NATURAL SOURCE” (COUNCIL OF SCIENTIFIC & INDUSTRIAL RESEARCH, priority 2010, published 2012).
Read-outs that look alike come from different tables or passages of the source.

Tests used:
human recombinant ALR2 = molecular target: T1, human recombinant ALR2 (Homo sapiens, UniProt P15121); test: ALR2 inhibition and determination of IC50 values (NADPH oxidation at 340 nm); type: biochemical
T1 construct: made in house; host or cells: E. coli JM101
Experimental: Transformed cells were selected on LB-medium containing 50 μg/ml spectinomycin and were grown overnight at 37° C. in LB broth containing M9 medium supplemented with 1% casamino acids, […] thiamine, and 0.05% trace metals. Culture was induced by isopropyl thiogalactoside (IPTG) at the final concentration of 1 mM and grown for additional 2 hours. Cells were harvested by spinning at 2000 g for 5 min at 4° C. and subjected to osmotic fractionation by suspending them in 20% sucrose, 30 mM Tris pH 7.5, 1 mM EDTA, and then cells were incubated at 23° C. for 15 min. After incubation, cells were recovered by centrifugation for 15 min at 2000 g at 4° C. Supernatant (sucrose wash) was reserved and pellet was resuspended in 1 ml of ice cold deionized water and incubated for 10 min on ice. Again cells were recovered by centrifugation at 12000 g for 5 min at 4° C. Supernatant (water wash) was reserved and pellet was resuspended in 1 ml of ice cold deionized water. Osmotic shock extract was further subjected to purification.
Osmotic shock extract was subjected to 50-80% ammonium sulphate fractionation followed by centrifugation at 10,000 g for 20 min. The pellet obtained was resuspended in 100-200 ml of 25 mM imidazole-HCl, pH 7.4. Crude lysate was applied to chromatography column packed with PBE 94 chromatofocussing resin, which had been previously equilibrated with 25 mM imidazole. Proteins were eluted from the column with 1:8 diluted polybuffer pH 7.4. Column eluant was continuously monitored by measuring absorbance at 280 nm. Fractions containing ALR2 activity were pooled and dialyzed against 10 mM potassium phosphate buffer containing 0.5 mM EDTA. Dialyzed samples were then applied to 30×2.5 cm at hydroxylapatite column equilibrated with 10 mM potassium phosphate buffer pH 7.4 containing 0.5 mM EDTA at a flow rate of 60 ml/h. The enzyme was eluted with a linear gradient 10-300 mM potassium phosphate buffer, pH 7.0. Fractions from each purification step are subjected to SDS-PAGE. Fractions containing ALR2 activity were pooled, concentrated and stored at −20° C. until further inhibition studies.
The assay mixture in 1 ml contained 50 mM potassium phosphate buffer, pH 6.2, 0.2 mM lithium sulfate, 5 mM 2-mercaptoethanol, 1 mM DL-glyceraldehyde, 0.1 mM NADPH and recombinant ALR2. Appropriate blanks were employed for corrections. The assay mixture was incubated at 37° C. and initiated by the addition of NADPH at 37° C. The change in the absorbance at 340 nm due to NADPH oxidation was monitored in a Lamda35 spectrophotometer (Perkin-Elmer, Shelton, USA).
For inhibition studies concentrated stocks of compounds prepared in dimethyl sulfoxide were used and the final concentration of DMSO was not more than 1% of the assay volume. Various concentrations of the above mentioned analogues were added to assay mixture of ALR2 and incubated for 5 min before initiating the reaction by NADPH as described above. The percentage inhibition was calculated considering the activity in the absence of compound as 100%. The IC50 values were determined by nonlinear regression analysis of the plot of percent inhibition versus log compound concentration.

human RBC = test: Inhibition of sorbitol formation in RBC under high glucose conditions (ex vivo); type: cell-based; settings: human RBC incubated under high glucose condition (55 mM), 3 hrs
Experimental: In vitro incubation of RBC: Five mL blood was collected from healthy male volunteers on overnight fasting in heparinized tubes. Red blood cells were separated by centrifugation (3000 rpm/min about 30 min) and washed three times with isotonic saline at 4° C. Washed RBC were suspended in Kreb's-ringer bicarbonate buffer, pH 7.4 (pre-equilibrated with 5% CO2) and incubated at 37° C. in presence of 5% CO2 for 3 hrs under normal (5.5 mM) and high glucose (55 mM) conditions in duplicates. The effect of compounds on sorbitol accumulation was evaluated by incubating the RBC with different concentrations of compounds.
Estimation of sorbitol in RBC: At the end of incubation period, RBC was homogenized in 9 volumes of 0.8 M perchloric acid. The homogenate was centrifuged at 5,000 g at 4° C. for 10 min and the pH of the supernatant was adjusted to 3.5 with 0.5 M potassium carbonate. The sorbitol content of the supernatant was measured by fluorometric method using a spectrofluorometer (Jasco-FP-6500).

[1] = human recombinant ALR2, read-out: IC50 value, ALR2 inhibition
[2] = recombinant human ALR2 in vitro, average of four experimental values, read-out: IC-50

**Q.** `COc1cc(C(CC(=O)N2CCC=CC2=O)c2c[nH]c3ccc(Br)cc23)cc(OC)c1OC` (racemic) [2g, 1-(3-(5-bromo-1H-indol-3-yl)-3-(3,4,5-trimethoxyphenyl)propanoyl)-5,6-dihydropyridin-2(1H)-one] was tested. Which IC50 (human recombinant ALR2; SAR studies text, read-out: IC50, in-vitro aldose reductase inhibition) did it give?
**A.** Its IC50 is 60 µM.

**Q.** And the IC50 (human recombinant ALR2; [1])?
**A.** Its IC50 is 15 µM.

**Q.** What does the source list for `COc1ccc2[nH]cc(C(CC(=O)N3CCC=CC3=O)c3cc(OC)c(OC)c(OC)c3)c2c1` (stereo not shown) [2j, 1-(3-(5-methoxy-1H-indol-3-yl)-3-(3,4,5-trimethoxyphenyl)propanoyl)-5,6-dihydropyridin-2(M)-one]?
**A.** % inhibition of sorbitol formation (human RBC): 64.9%; IC50 (human recombinant ALR2; [1]): 8 µM

**Q.** Which results are given for `COc1cc(C(CC(=O)N2CCC(c3cn(Cc4ccccc4)c4ccccc34)CC2=O)c2cn(Cc3ccccc3)c3ccccc23)cc(OC)c1OC` (stereo not shown) [3c, 1-(3-(1-benzyl-1H-indol-3-yl)-3-(3,4,5-trimethoxyphenyl)propanoyl)-4-(1-benzyl-1H-indol-3-yl)piperidin-2-one]?
**A.** % inhibition of sorbitol formation (human RBC): 58.5%; IC50 (human recombinant ALR2; [1]): 4 µM

**Q.** `COc1cc(C(CC(=O)N2CCC(c3c(C)[nH]c4ccccc34)CC2=O)c2c(C)[nH]c3ccccc23)cc(OC)c1OC` (stereo not shown) [3d, 1-(3-(3,4,5-trimethoxyphenyl)-3-(2-methyl-1H-indol-3-yl)propanoyl)-4-(2-methyl-1H-indol-3-yl)piperidin-2-one] was tested. Which IC50 (human recombinant ALR2; [2]) did it give?
**A.** Its IC50 is 40 µM.

**Q.** How did the “% inhibition of sorbitol formation” value (human RBC) turn out when `COc1cc(C(CC(=O)N2CCC(c3c(-c4ccccc4)[nH]c4ccccc34)CC2=O)c2c(-c3ccccc3)[nH]c3ccccc23)cc(OC)c1OC` (stereo not shown) [3e, 1-(3-(3,4,5-trimethoxyphenyl)-3-(2-phenyl-1H-indol-3-yl)propanoyl)-4-(2-phenyl-1H-indol-3-yl)piperidin-2-one] was run?
**A.** The value was 68%.

**Q.** And the IC50 (human recombinant ALR2; [2])?
**A.** The IC50 was 4 µM.

**Q.** With `COc1cc(/C=C/C(=O)N2CCC=CC2=O)cc(OC)c1OC` [Piplartine, 5,6-dihydro-1-((E)-3-(3,4,5-trimethoxyphenyl)acryloyl)pyridin-2(1H)-one] as the compound, how does the IC50 (human recombinant ALR2; [1]) read?
**A.** The IC50 was 160 µM.

**Q.** For `COc1cc(C(CC(=O)O)c2c(C)[nH]c3ccccc23)cc(OC)c1OC` (stereo not shown) [compound 4, 3-(3,4,5-trimethoxyphenyl)-3-(2-methyl-1H-indol-3-yl)propanoic acid], which “ALR2 inhibitory activity (in words)” value (human recombinant ALR2) is on record?
**A.** The value was “inactive”.

**Q.** For `COC(=O)/C=C/c1cc(OC)c(OC)c(OC)c1` [compound 5, (E)-methyl 3-(3,4,5-trimethoxyphenyl)acrylate], which “ALR2 inhibitory activity (in words)” value (human recombinant ALR2) is on record?
**A.** The value was “inactive”.

**Q.** Which IC50 (human recombinant ALR2; [1]) does the source give for pipernal here?
**A.** The IC50 was 310 µM.
